Data as given in patent US20200024234A1, “RADIOPHARMACEUTICAL COMPLEXES” (LUMIPHORE, INC., priority 2009, published 2020).
{NH2C3} = aminopropyl group attached via phosphodiester linkage

Legend:
[1] = cited from earlier work
[2] = in vivo; cited from earlier work
[3] = Gel electrophoresis mobility shift assay of complexation with metal cations
Source text: LUMI4® is an isophthalamide class macrocyclic chelate that selectively coordinates to metal cations including those of the lanthanide series. For use in certain applications, such as acting as a bifunctional chelating agent to attach a radioisotope to a site-directing molecule, it is necessary that the chelate be able to coordinate to the metal ion of interest in a kinetically facile and thermodynamically stable manner. […] In this experiment, a conjugate of LUMI4® with a small (18 base length) DNA oligomer was treated with a solution containing a metal cation. The electrophoretic mobility of the conjugate on a polyacrylamide gel was then compared with that of the conjugate which was not exposed to the solution of metal cation. […] To provide an additional comparison, the gel electrophoretic mobility of the DNA oligomer that was not conjugated to LUMI4® was measured with and without exposure to the metal cation solution under identical conditions.
In particular, a solution of DNA oligomer (6 μL, 5 μM, all concentrations final) was mixed with a solution of metal cation (2 μL, 250 μM) or an equal volume of water. The solution was incubated at 55° C. for five minutes, whereupon the solutions were allowed to cool to ambient temperature and a solution of 50% formamide (7 μL) was added. The resulting solution was again heated to 55° C. for five minutes and then cooled to −20° C. briefly. […]

[4] = thorium(IV) complexes; cited from earlier work

O=C(NCCCN(CCCCN(CCCNC(=O)c1cccc(=O)n1O)C(=O)c1cccc(=O)n1O)C(=O)c1cccc(=O)n1O)c1cccc(=O)n1O [3,4,3-LI(1,2-HOPO)]
effective dosage ([1]; in vivo): 0.01 to 0.1 µmol/kg | removal of Th(IV), Pu(IV) or Am(III) from the wound site and body compared with CaNa3-DTPA ([1]; injected ip or infiltrated into a wound): much more effective | oral activity ([1]; oral): useful oral activity | removal of injected or inhaled Pu(IV) and Am(III) compared with CaNa3-DTPA ([1]; rodents, injected, infused or oral): removes more | toxicity at effective dosage [2]: acceptably low toxicity

unmodified oligonucleotide: DNA 18-base oligonucleotide 5′-AAGGTCATCCATGACAAC-3′ (SEQ ID NO: 1) with 5′-aminopropyl group (DNA, 5' {NH2C3}, backbone not given here)
gel mobility following treatment with the metal cation solution ([3]; 20% polyacrylamide gel, 8 M urea, running buffer with 2 mM EDTA): unaffected

O=C(O)CN(CCN(CC(=O)O)CC(=O)O)CCN(CC(=O)O)CC(=O)O [DTPA]
Log K1 [4]: 30.34

NC(=O)CCCC(=O)NCCCCC1CN2CCNC(=O)c3cccc(c3O)C(=O)NCCN(CCNC(=O)c3cccc(c3O)C(=O)N1)CCN1CCNC(=O)c3cccc(c3O)C(=O)NCCN(CCNC(=O)c3cccc(c3O)C(=O)NCC1)CC2 (centres unmarked) [LUMI4®]
stability of metal complex upon electrophoresis in the presence of the competing chelate EDTA ([3]; LUMI4 conjugated to a DNA oligomer): forms a stable complex
